Laboratory results from ChEMBL document CHEMBL1201862, “PubChem BioAssay data set” (2004).
The source made the active and inactive calls.

Key:
Vero [1] = assay: cells; format: functional, cell-based; details: Chlorocebus sabaeus
[2] = target: T1, Microphthalmia-associated transcription factor (Homo sapiens, UniProt O75030); assay: TRPM1 promoter luciferase signal decrease, dose response, MITF inhibitor project, cell-based, SK-MEL-5, cherry-picked, set 3 (AID 493073); format: functional
T1 sequence (O75030 whole entry): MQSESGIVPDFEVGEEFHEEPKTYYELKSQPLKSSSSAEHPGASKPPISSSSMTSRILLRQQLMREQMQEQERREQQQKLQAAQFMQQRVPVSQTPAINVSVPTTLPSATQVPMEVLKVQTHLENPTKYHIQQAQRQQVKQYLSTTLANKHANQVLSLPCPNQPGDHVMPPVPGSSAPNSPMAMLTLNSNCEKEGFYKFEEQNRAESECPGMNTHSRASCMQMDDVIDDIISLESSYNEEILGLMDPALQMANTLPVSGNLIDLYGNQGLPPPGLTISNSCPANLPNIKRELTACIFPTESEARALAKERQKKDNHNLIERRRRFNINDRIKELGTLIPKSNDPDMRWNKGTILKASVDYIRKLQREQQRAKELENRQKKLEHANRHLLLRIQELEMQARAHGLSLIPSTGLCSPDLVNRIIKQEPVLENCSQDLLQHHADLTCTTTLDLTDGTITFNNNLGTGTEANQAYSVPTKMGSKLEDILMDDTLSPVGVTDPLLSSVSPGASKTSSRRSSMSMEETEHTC

Vero [3] = assay: cells; format: functional; details: Chlorocebus sabaeus
[4] = target: T2, Voltage-gated N-type calcium channel alpha-1B subunit/Amyloid beta A4 precursor protein-binding family A member 1 (Homo sapiens, UniProt Q00975+Q02410); format: protein assay
[5] = target: T2, Voltage-gated N-type calcium channel alpha-1B subunit/Amyloid beta A4 precursor protein-binding family A member 1; format: protein assay; remark: listed apart in the source
[6] = target: T3, Short transient receptor potential channel 4 (Mus musculus, UniProt Q9QUQ5); assay: mouse TRPC4 channel inhibitors, dose response, cell-based, HEK293 TRPC4/mu-opioid, Fluo-4 calcium (AID 434942); format: functional;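 also: potency of inhibitors blocking the TRPC4 calcium response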
T3 sequence (Q9QUQ5 whole entry): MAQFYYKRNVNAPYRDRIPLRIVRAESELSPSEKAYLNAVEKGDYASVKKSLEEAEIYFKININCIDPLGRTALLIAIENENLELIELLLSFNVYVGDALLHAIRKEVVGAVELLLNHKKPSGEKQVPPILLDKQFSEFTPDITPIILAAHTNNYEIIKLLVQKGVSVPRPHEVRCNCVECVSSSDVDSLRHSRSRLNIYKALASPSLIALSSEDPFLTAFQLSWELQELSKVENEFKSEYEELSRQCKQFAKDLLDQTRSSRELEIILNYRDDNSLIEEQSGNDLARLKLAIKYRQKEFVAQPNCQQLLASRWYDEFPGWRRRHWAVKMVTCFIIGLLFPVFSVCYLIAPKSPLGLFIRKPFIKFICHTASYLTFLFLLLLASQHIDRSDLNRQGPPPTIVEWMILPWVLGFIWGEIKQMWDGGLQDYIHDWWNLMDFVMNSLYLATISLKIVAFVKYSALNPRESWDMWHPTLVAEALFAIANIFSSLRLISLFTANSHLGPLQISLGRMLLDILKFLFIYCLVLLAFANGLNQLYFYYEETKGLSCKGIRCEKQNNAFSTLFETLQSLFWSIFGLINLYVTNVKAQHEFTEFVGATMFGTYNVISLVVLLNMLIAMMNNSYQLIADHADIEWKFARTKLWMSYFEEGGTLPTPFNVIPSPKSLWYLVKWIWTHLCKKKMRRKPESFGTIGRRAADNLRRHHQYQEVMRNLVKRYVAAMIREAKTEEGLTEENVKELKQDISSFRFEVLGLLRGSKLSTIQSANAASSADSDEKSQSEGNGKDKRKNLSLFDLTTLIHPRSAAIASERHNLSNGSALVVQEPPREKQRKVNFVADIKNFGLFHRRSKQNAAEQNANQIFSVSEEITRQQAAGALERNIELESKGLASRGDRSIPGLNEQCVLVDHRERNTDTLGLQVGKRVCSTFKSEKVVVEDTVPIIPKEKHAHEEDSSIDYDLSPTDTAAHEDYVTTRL

[7] = target: Eukaryotic translation initiation factor 4E (Mus musculus, UniProt P63073); assay: eIF4E–eIF4G protein interaction inhibitors, dose response, biochemical, TR-FRET (AID 855); format: functional;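 also: potency for disrupting eIF4E binding to eIF4GI seen as loss of FRET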
Vero [8] = assay: Vero cell cytotoxicity, cytotoxicity control for flavivirus capping enzyme inhibitors (AID 588742); format: functional; details: Chlorocebus sabaeus
[9] = NIH-3T3 fibroblast cytotoxicity, dose response, cytotoxicity control, cell-based, fluorescence, Alamar Blue, secondary assay (AID 2327); format: functional;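 also: NIH-3T3 mouse fibroblasts cultured with fluconazole at 8 µg/mL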
[10] = C. albicans growth with fluconazole, confirmation, fluorescence, retest (AID 2467); format: functional, cell-based
[11] = target: T4, Serine/threonine-protein phosphatase (Candida dubliniensis (strain CD36 / CBS 7987 / NCPF 3949 / NRRLY-17841) (Yeast), UniProt B9W6M3); assay: calcineurin pathway inhibitors in yeast reporter, dose response, S. cerevisiae, CDRE-lacZ, luminescence, secondary (AID 2388); format: functional, cell-based;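 also: yeast reporter cells carrying a calcineurin-responsive lacZ construct stimulated with calcium chloride; luminescent beta-galactosidase reporter signal in whole cells rather than isolated phosphatase activity; potency for inhibition where a drop in reporter signal means calcineurin blockade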
T4 sequence (B9W6M3 whole entry): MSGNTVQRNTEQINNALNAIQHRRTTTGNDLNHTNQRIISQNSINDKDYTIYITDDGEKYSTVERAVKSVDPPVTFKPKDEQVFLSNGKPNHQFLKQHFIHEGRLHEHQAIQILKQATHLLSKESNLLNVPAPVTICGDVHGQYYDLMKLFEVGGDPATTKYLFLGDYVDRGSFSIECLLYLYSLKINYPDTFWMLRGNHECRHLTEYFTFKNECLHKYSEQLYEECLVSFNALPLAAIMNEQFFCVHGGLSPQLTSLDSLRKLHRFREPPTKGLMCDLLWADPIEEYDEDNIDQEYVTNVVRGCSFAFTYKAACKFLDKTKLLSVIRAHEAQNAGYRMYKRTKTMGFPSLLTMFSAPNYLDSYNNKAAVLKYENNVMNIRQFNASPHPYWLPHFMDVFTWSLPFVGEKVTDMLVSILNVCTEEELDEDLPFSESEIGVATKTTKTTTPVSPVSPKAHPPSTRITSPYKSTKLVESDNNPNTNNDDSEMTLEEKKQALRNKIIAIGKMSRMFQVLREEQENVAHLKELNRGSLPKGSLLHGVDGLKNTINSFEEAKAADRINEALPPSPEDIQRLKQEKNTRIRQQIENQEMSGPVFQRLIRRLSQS

[12] = target: ATP-dependent molecular chaperone HSP82 (Candida albicans (strain WO-1) (Yeast), UniProt C4YTQ8); assay: loss of DOC-induced GRE-beta-galactosidase reporter signal, dose response, Hsp90 inhibitor project, S. cerevisiae, luminescence (AID 2400); format: functional, cell-based;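 also: beta-galactosidase luminescence from glucocorticoid response element reporter as proxy for Hsp90 function; inhibitor potency where signal loss means Hsp90 inhibition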
[13] = target: T5, Nucleotide-binding oligomerization domain-containing protein 1 (Homo sapiens, UniProt Q9Y239); assay: NOD1 signaling inhibitors, SAR follow-up, revised (AID 2333); format: functional
T5 sequence (Q9Y239 whole entry): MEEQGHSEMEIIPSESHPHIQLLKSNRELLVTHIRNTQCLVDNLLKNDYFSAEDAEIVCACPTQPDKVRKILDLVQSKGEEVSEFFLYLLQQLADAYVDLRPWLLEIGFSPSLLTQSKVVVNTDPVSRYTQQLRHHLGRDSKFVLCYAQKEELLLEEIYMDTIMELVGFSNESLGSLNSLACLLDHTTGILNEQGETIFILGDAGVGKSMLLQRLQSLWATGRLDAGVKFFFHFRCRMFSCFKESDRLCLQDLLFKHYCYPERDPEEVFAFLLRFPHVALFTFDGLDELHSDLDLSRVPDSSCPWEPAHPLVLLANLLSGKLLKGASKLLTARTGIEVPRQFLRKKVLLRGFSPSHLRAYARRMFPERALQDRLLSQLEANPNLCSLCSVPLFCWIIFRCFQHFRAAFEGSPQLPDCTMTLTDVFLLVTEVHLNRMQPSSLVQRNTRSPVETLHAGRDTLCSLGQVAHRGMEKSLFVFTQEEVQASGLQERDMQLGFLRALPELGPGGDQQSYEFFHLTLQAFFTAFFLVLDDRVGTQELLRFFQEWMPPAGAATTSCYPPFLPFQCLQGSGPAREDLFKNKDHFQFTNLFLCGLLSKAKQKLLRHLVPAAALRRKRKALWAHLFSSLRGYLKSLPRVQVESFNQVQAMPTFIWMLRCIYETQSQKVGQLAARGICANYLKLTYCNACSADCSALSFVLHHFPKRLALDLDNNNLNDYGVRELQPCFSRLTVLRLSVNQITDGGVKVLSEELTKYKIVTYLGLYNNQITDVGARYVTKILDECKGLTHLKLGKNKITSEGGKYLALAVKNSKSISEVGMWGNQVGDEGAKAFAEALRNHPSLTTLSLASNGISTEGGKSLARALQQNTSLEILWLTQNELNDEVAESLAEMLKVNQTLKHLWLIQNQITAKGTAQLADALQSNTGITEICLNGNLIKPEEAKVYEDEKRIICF

HEK293 = assay: cells; details: Homo sapiens
Tumor necrosis factor = Tumor necrosis factor (Homo sapiens, UniProt P01375); assay: TNFa-triggered NF-kB activation inhibitors, SAR follow-up, cell-based, revised (AID 2337); format: functional
[14] = target: Heat shock protein HSP 90-alpha (Homo sapiens, UniProt P07900); format: functional, organism-based
Fatty acid synthase [15] = target: T6, Fatty acid synthase (Homo sapiens, UniProt P49327); assay: FAS thioesterase domain inhibitors, dose response, biochemical, endpoint fluorescence intensity, uHTS hits (AID 624327); format: functional;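 also: fluorescence from hydrolysis of an O-methyl fluorescein acyl ester substrate by the enzyme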
Fatty acid synthase [16] = target: T6, Fatty acid synthase; assay: FAS thioesterase domain inhibitors, dose response, biochemical, kinetic fluorescence intensity (AID 624326); format: functional;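 also: rate of fluorescence rise from hydrolysis of a fluorogenic O-methyl fluorescein ester substrate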
[17] = HepG2 cell cytotoxicity, dose response, cytotoxicity control for Shn3 inhibitor project, CellTiter-Glo, cherry-picked (AID 624134); format: functional, cell-based
[18] = Shn3 3'UTR reporter inhibitors, dose response, cell-based, Clone20 osteoblasts, firefly luciferase, cherry-picked (AID 624132); format: functional;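 also: firefly luciferase luminescence from reporter carrying the Shn3 3'UTR in osteoblasts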
[19] = control 3'UTR Renilla luciferase suppression, dose response, counter-screen for Shn3 inhibitor project, cell-based, Clone20-Shn3RL, cherry-picked (AID 624133); format: functional

Sequence of Eukaryotic translation initiation factor 4E (P63073 whole entry): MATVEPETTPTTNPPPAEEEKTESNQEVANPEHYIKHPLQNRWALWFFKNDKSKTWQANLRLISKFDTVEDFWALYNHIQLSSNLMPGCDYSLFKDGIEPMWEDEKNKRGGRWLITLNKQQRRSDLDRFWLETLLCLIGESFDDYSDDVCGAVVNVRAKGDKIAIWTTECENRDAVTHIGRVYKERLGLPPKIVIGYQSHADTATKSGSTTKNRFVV
T2 sequence (Q00975 whole entry): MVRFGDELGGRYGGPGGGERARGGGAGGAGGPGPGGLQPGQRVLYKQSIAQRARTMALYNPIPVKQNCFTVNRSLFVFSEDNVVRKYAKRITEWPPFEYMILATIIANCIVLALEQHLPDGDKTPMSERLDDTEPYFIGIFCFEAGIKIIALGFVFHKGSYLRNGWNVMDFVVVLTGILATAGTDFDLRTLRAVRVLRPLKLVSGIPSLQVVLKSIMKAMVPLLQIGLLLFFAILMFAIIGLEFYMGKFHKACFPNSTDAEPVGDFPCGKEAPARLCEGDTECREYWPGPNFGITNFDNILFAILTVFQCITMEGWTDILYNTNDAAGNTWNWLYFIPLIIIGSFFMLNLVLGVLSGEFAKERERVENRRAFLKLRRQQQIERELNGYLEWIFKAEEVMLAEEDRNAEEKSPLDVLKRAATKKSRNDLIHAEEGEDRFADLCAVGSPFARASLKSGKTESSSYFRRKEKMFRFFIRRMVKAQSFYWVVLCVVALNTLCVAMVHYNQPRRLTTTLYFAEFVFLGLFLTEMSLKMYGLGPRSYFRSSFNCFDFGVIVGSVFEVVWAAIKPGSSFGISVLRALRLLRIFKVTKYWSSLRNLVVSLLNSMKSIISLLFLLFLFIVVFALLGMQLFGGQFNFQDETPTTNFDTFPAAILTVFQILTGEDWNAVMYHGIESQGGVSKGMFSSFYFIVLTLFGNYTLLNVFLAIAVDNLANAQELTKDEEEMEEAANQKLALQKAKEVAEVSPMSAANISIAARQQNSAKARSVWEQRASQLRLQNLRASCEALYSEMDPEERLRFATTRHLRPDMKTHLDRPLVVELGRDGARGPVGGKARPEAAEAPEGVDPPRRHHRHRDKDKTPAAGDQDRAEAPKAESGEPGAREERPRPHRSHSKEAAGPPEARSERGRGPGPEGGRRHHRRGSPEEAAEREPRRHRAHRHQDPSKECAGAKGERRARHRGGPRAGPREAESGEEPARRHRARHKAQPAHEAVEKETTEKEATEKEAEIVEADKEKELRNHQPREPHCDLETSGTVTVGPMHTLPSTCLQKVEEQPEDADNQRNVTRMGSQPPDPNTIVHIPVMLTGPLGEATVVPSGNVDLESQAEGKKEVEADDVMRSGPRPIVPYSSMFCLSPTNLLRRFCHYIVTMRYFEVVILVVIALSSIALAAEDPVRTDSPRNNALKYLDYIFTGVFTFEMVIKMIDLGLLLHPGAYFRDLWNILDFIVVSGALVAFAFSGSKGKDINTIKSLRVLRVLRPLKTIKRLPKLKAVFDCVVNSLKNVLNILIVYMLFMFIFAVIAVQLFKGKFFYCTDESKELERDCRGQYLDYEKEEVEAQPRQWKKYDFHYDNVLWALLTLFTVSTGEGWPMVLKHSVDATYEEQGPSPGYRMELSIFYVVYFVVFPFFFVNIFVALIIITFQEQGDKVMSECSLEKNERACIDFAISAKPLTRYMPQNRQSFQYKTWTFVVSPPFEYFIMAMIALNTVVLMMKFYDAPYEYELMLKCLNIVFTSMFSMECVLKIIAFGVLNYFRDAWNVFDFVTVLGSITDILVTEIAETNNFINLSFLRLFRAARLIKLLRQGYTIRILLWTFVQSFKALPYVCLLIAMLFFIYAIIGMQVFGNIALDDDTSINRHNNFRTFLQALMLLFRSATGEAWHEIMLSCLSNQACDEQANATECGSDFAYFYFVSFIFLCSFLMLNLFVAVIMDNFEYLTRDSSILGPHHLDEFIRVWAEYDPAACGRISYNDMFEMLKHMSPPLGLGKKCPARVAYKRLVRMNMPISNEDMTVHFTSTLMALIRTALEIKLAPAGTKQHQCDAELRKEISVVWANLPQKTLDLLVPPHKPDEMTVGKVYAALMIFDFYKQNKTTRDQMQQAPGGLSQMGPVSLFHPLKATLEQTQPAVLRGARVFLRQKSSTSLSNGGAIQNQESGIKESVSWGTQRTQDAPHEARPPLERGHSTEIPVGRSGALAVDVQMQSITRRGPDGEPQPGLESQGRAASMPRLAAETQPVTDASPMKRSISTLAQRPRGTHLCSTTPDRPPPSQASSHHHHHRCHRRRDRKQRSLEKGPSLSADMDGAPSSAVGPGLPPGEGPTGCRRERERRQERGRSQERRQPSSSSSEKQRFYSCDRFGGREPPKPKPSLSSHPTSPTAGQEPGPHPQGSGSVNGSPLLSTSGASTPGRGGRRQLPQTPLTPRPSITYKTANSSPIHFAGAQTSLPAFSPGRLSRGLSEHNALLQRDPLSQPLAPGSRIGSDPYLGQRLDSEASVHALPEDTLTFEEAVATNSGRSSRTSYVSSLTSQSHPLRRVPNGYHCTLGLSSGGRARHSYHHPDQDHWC
T2 sequence (Q02410 whole entry): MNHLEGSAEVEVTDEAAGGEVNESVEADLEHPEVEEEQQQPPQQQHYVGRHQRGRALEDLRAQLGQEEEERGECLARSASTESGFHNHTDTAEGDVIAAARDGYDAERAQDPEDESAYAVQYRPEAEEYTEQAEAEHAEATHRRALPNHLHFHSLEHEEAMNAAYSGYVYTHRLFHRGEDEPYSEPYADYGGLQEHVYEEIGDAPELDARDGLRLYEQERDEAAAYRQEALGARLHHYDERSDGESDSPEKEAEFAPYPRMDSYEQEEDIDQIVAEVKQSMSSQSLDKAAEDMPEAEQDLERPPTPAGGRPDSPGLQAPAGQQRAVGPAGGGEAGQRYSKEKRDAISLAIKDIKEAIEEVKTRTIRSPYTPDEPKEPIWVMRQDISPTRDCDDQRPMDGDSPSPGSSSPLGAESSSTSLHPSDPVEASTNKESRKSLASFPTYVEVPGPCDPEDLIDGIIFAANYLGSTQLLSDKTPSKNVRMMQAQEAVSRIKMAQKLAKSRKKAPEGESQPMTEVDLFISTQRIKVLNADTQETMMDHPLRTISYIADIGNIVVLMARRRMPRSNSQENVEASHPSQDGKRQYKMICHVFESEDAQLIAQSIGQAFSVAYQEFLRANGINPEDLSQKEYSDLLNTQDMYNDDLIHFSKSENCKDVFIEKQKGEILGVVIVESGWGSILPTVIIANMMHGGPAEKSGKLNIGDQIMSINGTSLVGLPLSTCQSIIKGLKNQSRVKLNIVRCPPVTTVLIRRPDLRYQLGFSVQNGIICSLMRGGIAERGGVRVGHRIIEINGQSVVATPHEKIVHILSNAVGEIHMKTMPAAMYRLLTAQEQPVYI
Sequence of Tumor necrosis factor (P01375 whole entry): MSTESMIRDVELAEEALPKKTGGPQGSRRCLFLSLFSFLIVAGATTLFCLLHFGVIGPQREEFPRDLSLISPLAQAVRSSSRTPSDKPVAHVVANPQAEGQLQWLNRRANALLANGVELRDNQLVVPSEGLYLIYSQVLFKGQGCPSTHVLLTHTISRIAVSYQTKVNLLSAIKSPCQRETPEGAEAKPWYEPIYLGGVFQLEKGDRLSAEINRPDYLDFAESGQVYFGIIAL
Sequence of ATP-dependent molecular chaperone HSP82 (C4YTQ8 whole entry, the tested form may be a part): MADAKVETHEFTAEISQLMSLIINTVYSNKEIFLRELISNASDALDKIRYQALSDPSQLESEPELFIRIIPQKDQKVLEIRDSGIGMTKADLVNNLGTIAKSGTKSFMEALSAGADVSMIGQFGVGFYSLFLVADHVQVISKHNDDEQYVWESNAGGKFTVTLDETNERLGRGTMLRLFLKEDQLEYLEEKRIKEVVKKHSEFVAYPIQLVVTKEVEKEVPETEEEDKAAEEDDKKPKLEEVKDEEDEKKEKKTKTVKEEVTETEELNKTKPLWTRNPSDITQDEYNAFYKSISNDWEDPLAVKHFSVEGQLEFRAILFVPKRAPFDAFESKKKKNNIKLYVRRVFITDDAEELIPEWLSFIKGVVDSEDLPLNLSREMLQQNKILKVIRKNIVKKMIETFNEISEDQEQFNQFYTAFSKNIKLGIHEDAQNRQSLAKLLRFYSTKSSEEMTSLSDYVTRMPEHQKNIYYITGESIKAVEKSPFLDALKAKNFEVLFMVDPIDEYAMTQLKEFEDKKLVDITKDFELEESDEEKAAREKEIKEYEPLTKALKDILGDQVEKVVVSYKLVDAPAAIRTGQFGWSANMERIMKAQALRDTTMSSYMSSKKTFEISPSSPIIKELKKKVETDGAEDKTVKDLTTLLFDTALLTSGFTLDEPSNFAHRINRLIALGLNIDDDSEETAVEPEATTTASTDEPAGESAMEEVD

## Cc1oc(-c2ccc(Cl)cc2)nc1CN1CCC(C(=O)NCCCN2CCCC(C)C2)CC1 (stereo not given)
Vero [1]
  IC50: 4.32 µM (active)
[2]
  AC50: 13.2 µM (active)
Vero [3]
  CC50: 22.5 µM (active)

## COC/C=C/C1=CC2=CC(=O)C(C)(OC(=O)c3cnc4ccccc4n3)C(=O)C2=CN1c1ccc(CO)cc1 (stereo not given)
[4]
  IC50: 10.4 µM (active)
[5]
  IC50: 11.2 µM (active)

## Cc1cccc(NC(=S)NC2CCCCC2)n1
[4]
  IC50: 9.58 µM (active)
[5]
  IC50: > 50 µM (inactive)

## O=C(Nc1ccnn1C1CCN(CCCC2CCCC2)CC1)c1ccccc1Cl
[6]
  EC50: 1.68 µM (active)

## COc1ccc(Sc2nc(-c3ccccc3)ncc2C(=O)O)cc1
[6]
  EC50: 5.96 µM (active)

## CC12CC3(C)CC(C)(C1)CC(NC(=O)N1CCCC1)(C2)C3
[6]
  EC50: 7.5 µM (active)

## C/C=C/C=C\C(=O)Nc1cccc(C2=NOC3(C2)C[C@H](C(N)=O)N(C(=O)/C=C/C)C3)c1 (stereo not given in full)
[4]
  IC50: 9.88 µM (active)
[5]
  IC50: 6.79 µM (active)

## COc1ccc(CNC2=NC(=O)CC(C(=O)Nc3ccc(F)cc3)S2)cc1 (stereo not given)
[7]
  IC50: > 64 µM (inactive)

## O=C(Nc1ccncc1)c1cc2ccccc2cc1O
Vero [8]
  CC50: > 40 µM (active)

## Cc1cc(=O)oc2cc(Oc3ccc([N+](=O)[O-])cc3[N+](=O)[O-])ccc12
[9]
  EC50: 35.9 µM (inconclusive)
[10]
  EC50: 1.3 µM (active)
[11]
  EC50: > 180 µM (inactive)
[12]
  EC50: > 160 µM (inactive)

## COc1ccc(S(=O)(=O)N2CCC(C(=O)NCc3cccc(OC)c3)CC2)cc1
[7]
  IC50: > 64 µM (inactive)

## O=C(CSc1nc2scc(-c3ccccc3)c2c(=O)[nH]1)Nc1ccc(C(F)(F)F)cc1
[13]
  IC50: 1.65 µM (active)
HEK293
  IC50: 10.3 µM (active)
Tumor necrosis factor
  IC50: 0.752 µM (active)

## CSc1ccccc1NC(=O)c1ccccc1C
[7]
  IC50: 50 µM (inactive)

## O=C1C(F)=CC(COC(c2ccccc2)(c2ccccc2)c2ccccc2)OC1n1cc(F)c(=O)[nH]c1=O (stereo not given)
[14]
  AC50: 2.6 µM (active)
Vero [1]
  IC50: 12.1 µM (active)
Fatty acid synthase [15]
  IC50: 7.69 µM (active)
Fatty acid synthase [16]
  IC50: 8.13 µM (active)
[17]
  AC50: 9.11 µM (active)
Vero [3]
  CC50: 6.83 µM (active)
[18]
  AC50: 0.428 µM (active)
[19]
  AC50: 2.42 µM (active)

## COc1ccc(C2CC2/C(=N/O)c2ccccc2)cc1 (stereo not given)
[6]
  EC50: 2.99 µM (active)

## COc1ccc(CNc2nc(NCc3ccc(OC)cc3)c3[nH]cnc3n2)cc1
Vero [8]
  CC50: > 40 µM (active)

## COc1ccc(/C=C2\SC(=S)N(CC(=O)NNC(=O)c3ccncc3)C2=O)cc1
[4]
  IC50: > 56.8 µM (not active)
[5]
  IC50: > 50 µM (inactive)
